Values after ≈ are worked out from the molar mass of the structure shown. Like-named read-outs stand apart in the source and are kept apart here.
Assays:
Experiment in all cases: microbe, parasite or virus in culture
[1] = tested on: C. albicans wild-type; set-up: species or system whole yeast cells; macro tube broth dilution MIC in YEPD at 30 C, visual clearness of medium; conditions: Candida albicans, 48 h, YEPD medium
[2] = tested on: C. albicans wild-type; set-up: species or system whole yeast cells; micro-culture broth dilution MIC in YES at 30 C, turbidity, complete growth inhibition; conditions: Candida albicans; YES medium, C. albicans strain f
Method: (§1) Standard YEPD (Yeast Extract, Peptone, Dextrose) ([Sherman, 1990]), YEPD+S (YEPD with 1.2M sorbitol), YES (Yeast Extract, Dextrose and Supplements of Adenine, Histidine, Leucine, Uracil and Lysine) ([Alfa et al., 1993]) and YES+S (YES with 1.2 M sorbitol) ([Ribas et al., 1991]; [Ishiguro et al., 1997]), media were used for determination of MIC values of the tested compounds. A stock solution of 10 mg/ml of each tested compounds was prepared in DMSO and serial dilutions in DMSO were prepared. The final concentration of DMSO was 2% in the YEPD medium. […] The serial dilutions of compounds were dispensed into test tubes with 1 ml of YEPD or YEPD+S to make final concentrations of 200, 100, 50, 25, 12.5, 6.26, 3.125, 1.6, 0.8 and 0.4 μg/ml. The tested yeast strains were previously grown in YEPD, YEPD+S, YES or YES+S agar plates at 30°C for 48 h. Micro-culture assays of large numbers of samples were analyzed as described) ([Martins et al., 2011]). Essentially early log-phase cells were grown in YEPD, YEPD+S, YES or YES+S (1.2 M sorbitol) medium at 30°C, and diluted to cell density of 4 X 10^6 cells/ml in YEPD, YEPD+S, YES or YES+S medium and aliquots of 100 μl were dispensed into each small test tube (3 ml test tube size). Then, another 100 μl of YEPD, YEPD+S, YES or YES+S with the corresponding dilution of each compound at 2X concentration (4% DMSO) was added. The final volume was 200 μl, with the cells diluted to of 2 X 10^6 cells/ml and each compound diluted to 1X final concentration, containing increasing concentrations of antifungal (0, 1, 2, 5, 10, 20, 50, 100 and 200 μg/ml) or an equivalent volume of solvent (2% DMSO). The cells were grown at 30°C in an orbital roller and turbidity was analyzed after 24 and 48 h of incubation. The MIC was determined as the minimal concentration of tested compound that produced complete cell growth inhibition and kept the medium clear. The MIC values were calculated from at least three independent experiments. Next, the first generation of isochromanones (1E-16E) was also screened in YES medium (Table 5) and exerted a weaker antifungal potency than in YEPD medium and also than the second family of isochromanones in YES medium (17E-30E) (Table 6). The strains are partly different from the previously mentioned ones (Tables 5, 6) analyzing two wild type C. albicans strains because they behaved similarly in YEPD. It is remarkable that there was no effect against either the C. albicans, the S. cerevisiae, or the S. pombe wild-type strains, except with 30E.

[3] = tested on: T1, S. cerevisiae wild-type CVX12-3A; set-up: species or system whole yeast cells; micro-culture broth dilution MIC in YES at 30 C, turbidity, complete growth inhibition; conditions: Saccharomyces cerevisiae
T1 construct: CVX12-3A
Method: as §1

[4] = tested on: T2, S. pombe wild-type 972 h-; set-up: species or system whole yeast cells; micro-culture broth dilution MIC in YES at 30 C, turbidity, complete growth inhibition; conditions: Schizosaccharomyces pombe
T2 construct: 972 h-
Method: as §1

| Compound | MIC ([1]; C. albicans strain f) [µg/mL] | MIC ([1]; C. albicans strain g) [µg/mL] | MIC ([1]; C. albicans strain h) [µg/mL] | MIC [2] [µg/mL] | MIC ([3]; YES medium) [µg/mL] | MIC ([4]; YES medium) [µg/mL] | MIC ([3]; read-out: MIC) [µg/mL] | MIC ([4]; read-out: MIC) [µg/mL] |
| --- | --- | --- | --- | --- | --- | --- | --- | --- |
| O=c1oc2ccccc2cc1-c1ccccc1CO [compound 15] | > 100 | > 100 | > 100 | > 200 | > 200 | > 200 | – | – |
| CC[C@H](C)C[C@H](C)CCCCCCCCC(=O)N[C@H]1C[C@@H](O)[C@@H](NCCN)NC(=O)[C@@H]2[C@@H](O)CCN2C(=O)[C@H]([C@H](O)CCN)NC(=O)[C@H]([C@H](O)[C@@H](O)c2ccc(O)cc2)NC(=O)[C@@H]2C[C@@H](O)CN2C(=O)[C@H]([C@@H](C)O)NC1=O [caspofungin] | – | – | – | – | – | – | 0.5 (≈ 0.457 µM) | 10 (≈ 9.15 µM) |
| O=c1oc2ccc3ccccc3c2cc1-c1ccccc1CO [compound 12] | > 200 | > 200 | > 200 | > 200 | > 200 | > 200 | – | – |

Source: publication PMC6689975, “Novel Cell Wall Antifungals Reveal a Special Synergistic Activity in pbr1 Mutants Resistant to the Glucan Synthesis Antifungals Papulacandins and Echinocandins” (Frontiers in Microbiology, 2019)
